# Earlier results as cited in article PMC4191344, “Identification and characterization of Aβ peptide interactors in Alzheimer’s disease by structural approaches” (Frontiers in Aging Neuroscience, 2014).
# Test system: Aβ
# Conditions: in vitro; ref Pollio et al., 2008
# Excerpt: Early literature was somewhat conflicting explicating the role of the EP24.15 metalloenzyme in the etiology of AD. This enzyme was originally erroneously thought to be the β-secretase activity initiating the processing of the APP into Aβ (Papastoitsis et al., [1994]) prior to the discovery of the beta amyloid cleaving enzyme-1 (BACE-1). The EP24.15 gene is located at a chromosomal locus that is close to a region involved with early onset AD (Meckelein et al., [1996]). […] In older transgenic animals, EP24.15 protein was increased in the hippocampus, supportive of a role in Aβ clearance though there was no attributable mechanism.
substance,measurement,value
"EP24.15: soluble, 77 kD metalloendopeptidase in the family of zinc metallopeptidases",inhibition of Aβ toxicity by EP24.15 expression,inhibit the toxicity of Aβ in vitro
